Patent US5284853A, “Angiotensin II receptor blocking 2,3,6 substituted quinazolinones” (American Cyanamid Company, priority 1993, dated 1994)
Where “and” joins values, the source holds several entries; their conditions need not be identical. Equal values may be shown once.

System: Angiotensin II (AII) vasopressor response
Experiment: AII Challenge: antagonism of the angiotensin II vasopressor response in conscious SHR
Assay type: in vivo, Spontaneously hypertensive rats (Male okamoto-Aoki SHR)
Settings: for Average Change / Inhibition: n = 2; for Change / Control Before AII / Response After AII: per rat
[1] = 5 mg/kg I.V., AII 0.05 mcg/kg IV, 30 min post dose
[2] = 5 mg/kg I.V., AII 0.05 mcg/kg IV, 60 min post dose
[3] = 5 mg/kg I.V., AII 0.05 mcg/kg IV, 90 min post dose
[4] = 5 mg/kg I.V., AII 0.05 mcg/kg IV, 120 min post dose
[5] = 5 mg/kg I.V., AII 0.05 mcg/kg IV, 180 min post dose
[6] = 5 mg/kg I.V., AII 0.1 mcg/kg IV, 30 min post dose
[7] = 5 mg/kg I.V., AII 0.1 mcg/kg IV, 60 min post dose
[8] = 5 mg/kg I.V., AII 0.1 mcg/kg IV, 90 min post dose
[9] = 5 mg/kg I.V., AII 0.1 mcg/kg IV, 120 min post dose
[10] = 5 mg/kg I.V., AII 0.1 mcg/kg IV, 180 min post dose
[11] = 15 mg/kg I.V., AII 0.05 mcg/kg IV, 30 min post dose
[12] = 15 mg/kg I.V., AII 0.05 mcg/kg IV, 60 min post dose
[13] = 15 mg/kg I.V., AII 0.05 mcg/kg IV, 90 min post dose
[14] = 15 mg/kg I.V., AII 0.05 mcg/kg IV, 120 min post dose
[15] = 15 mg/kg I.V., AII 0.05 mcg/kg IV, 180 min post dose
[16] = 15 mg/kg I.V., AII 0.1 mcg/kg IV, 30 min post dose
[17] = 15 mg/kg I.V., AII 0.1 mcg/kg IV, 60 min post dose
[18] = 15 mg/kg I.V., AII 0.1 mcg/kg IV, 90 min post dose
[19] = 15 mg/kg I.V., AII 0.1 mcg/kg IV, 120 min post dose
[20] = 15 mg/kg I.V., AII 0.1 mcg/kg IV, 180 min post dose

Question: What does the source list for CCCCc1nc2ccc(C3CC(c4ccc(C)o4)=NO3)cc2c(=O)n1Cc1ccc(-c2ccccc2-c2nnn[nH]2)cc1 (stereo not shown) [Example 19]?
Answer: Average Change [1]: 15.5 mmhg; Inhibition [1]: 72%; Change [1]: 11 mmhg and 20 mmhg; Control Before AII [1]: 165 mmhg and 200 mmhg; Response After AII [1]: 176 mmhg and 180 mmhg; Average Change [2]: 15 mmhg; Inhibition [2]: 73%; Change [2]: 20 mmhg and 10 mmhg; Control Before AII [2]: 160 mmhg and 195 mmhg; Response After AII [2]: 180 mmhg and 205 mmhg; Average Change [3]: 20 mmhg; Inhibition [3]: 64%; Change [3]: 25 mmhg and 15 mmhg; Control Before AII [3]: 155 mmhg and 190 mmhg; Response After AII [3]: 180 mmhg and 205 mmhg; Average Change [4]: 25 mmhg; Inhibition [4]: 55%; Change [4]: 35 mmhg and 15 mmhg; Control Before AII [4]: 150 mmhg and 175 mmhg; Response After AII [4]: 185 mmhg and 190 mmhg; Average Change [5]: 25 mmhg; Inhibition [5]: 55%; Change [5]: 33 mmhg and 17 mmhg; Control Before AII [5]: 165 mmhg and 185 mmhg; Response After AII [5]: 198 mmhg and 202 mmhg; Average Change [6]: 17.5 mmhg; Inhibition [6]: 83%; Change [6]: 20 mmhg and 15 mmhg; Control Before AII [6]: 160 mmhg and 205 mmhg; Response After AII [6]: 180 mmhg and 220 mmhg; Average Change [7]: 21 mmhg; Inhibition [7]: 68%; Change [7]: 25 mmhg and 17 mmhg; Control Before AII [7]: 160 mmhg and 193 mmhg; Response After AII [7]: 185 mmhg and 210 mmhg; Average Change [8]: 24 mmhg; Inhibition [8]: 63%; Change [8]: 25 mmhg and 23 mmhg; Control Before AII [8]: 175 mmhg and 187 mmhg; Response After AII [8]: 200 mmhg and 210 mmhg; Average Change [9]: 22.5 mmhg; Inhibition [9]: 65%; Change [9]: 20 mmhg and 25 mmhg; Control Before AII [9]: 165 mmhg and 175 mmhg; Response After AII [9]: 185 mmhg and 200 mmhg; Average Change [10]: 27.5 mmhg; Inhibition [10]: 58%; Change [10]: 25 mmhg and 30 mmhg; Control Before AII [10]: 170 mmhg and 185 mmhg; Response After AII [10]: 195 mmhg and 215 mmhg; Average Change [11]: 5 mmhg; Inhibition [11]: 83%; Change [11]: 0 mmhg and 10 mmhg; Control Before AII [11]: 165 mmhg and 150 mmhg; Response After AII [11]: 165 mmhg and 160 mmhg; Average Change [12]: 10 mmhg; Inhibition [12]: 67%; Change [12]: 10 mmhg; Control Before AII [12]: 155 mmhg and 150 mmhg; Response After AII [12]: 165 mmhg and 160 mmhg; Average Change [13]: 5 mmhg; Inhibition [13]: 83%; Change [13]: 5 mmhg; Control Before AII [13]: 155 mmhg and 150 mmhg; Response After AII [13]: 160 mmhg and 155 mmhg; Average Change [14]: 7.5 mmhg; Inhibition [14]: 75%; Change [14]: 5 mmhg and 10 mmhg; Control Before AII [14]: 150 mmhg; Response After AII [14]: 155 mmhg and 160 mmhg; Average Change [15]: 7.5 mmhg; Inhibition [15]: 75%; Change [15]: 0 mmhg and 15 mmhg; Control Before AII [15]: 160 mmhg and 140 mmhg; Response After AII [15]: 160 mmhg and 155 mmhg; Average Change [16]: 5 mmhg; Inhibition [16]: 89%; Change [16]: 0 mmhg and 10 mmhg; Control Before AII [16]: 165 mmhg and 160 mmhg; Response After AII [16]: 165 mmhg and 170 mmhg; Average Change [17]: 5 mmhg; Inhibition [17]: 89%; Change [17]: 0 mmhg and 10 mmhg; Control Before AII [17]: 165 mmhg and 160 mmhg; Response After AII [17]: 165 mmhg and 170 mmhg; Average Change [18]: 7.5 mmhg; Inhibition [18]: 83%; Change [18]: 10 mmhg and 5 mmhg; Control Before AII [18]: 155 mmhg and 150 mmhg; Response After AII [18]: 165 mmhg and 155 mmhg; Average Change [19]: 7.5 mmhg; Inhibition [19]: 83%; Change [19]: 10 mmhg and 5 mmhg; Control Before AII [19]: 155 mmhg; Response After AII [19]: 165 mmhg and 160 mmhg; Average Change [20]: 10 mmhg; Inhibition [20]: 78%; Change [20]: 0 mmhg and 20 mmhg; Control Before AII [20]: 170 mmhg and 150 mmhg; Response After AII [20]: 170 mmhg
